Reference: patent US8207172B2 (Bayer Intellectual Property GmbH, priority 2004, dated 2012)

Experiments:
[1] = system: A431 cells (human epidermoid carcinoma); assay: In vitro tumor cell proliferation assay (Cell Titer-Glo luminescent cell viability), A431; format: cell-based; settings: A-431, 72 h, 72 hours of drug exposure, ATP luminescence readout, read-out: IC50, anti-proliferative activity (inhibition of cell proliferation)
Procedure, shortened: (§1)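 CellTiter-Glo luminescence (ATP content of metabolically active cells) after 72 h compound exposure at 37° C gave IC50s.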

[2] = system: BT474 (human breast carcinoma); assay: In vitro tumor cell proliferation assay (Cell Titer-Glo luminescent cell viability), BT474; format: cell-based; settings: BT-474, 72 h, BT474 cells, 72 hours of drug exposure, ATP luminescence readout, read-out: IC50, anti-proliferative activity (inhibition of cell proliferation)
Procedure, shortened: as §1

Row | SMILES | IC50 [1] [µM] | IC50 [2] [µM]
1 | Fc1cccc(COc2ccc(Nc3ncnc4sc5c(c34)CCc3nn(CCN4CCC(N6CCCCC6)CC4)cc3-5)cc2Cl)c1 [Example 70, 2-[2-(1,4′-bipiperidin-1′-yl)ethyl]-N-{3-chloro-4-[(3-fluorobenzyl)oxy]phenyl}-4,5-dihydro-2H-pyrimido[5′,4′:4,5]thieno[2,3-e]indazol-6-amine] | ≤ 5 | ≤ 1
2 | CNCCn1cc2c(n1)CCc1c-2sc2ncnc(Nc3ccc(OCc4cccc(F)c4)c(Cl)c3)c12 [Example 71, N-{3-chloro-4-[(3-fluorobenzyl)oxy]phenyl}-2-[2-(methylamino)ethyl]-4,5-dihydro-2H-pyrimido[5′,4′:4,5]thieno[2,3-e]indazol-6-amine] | ≤ 50 | ≤ 1
3 | CC(C)(C)OC(=O)N1CCN(CCn2cc3c(n2)CCc2c-3sc3ncnc(Nc4ccc(OCc5cccc(F)c5)c(Cl)c4)c23)CC1 [Example 72, tert-butyl 4-{2-[6-({3-chloro-4-[(3-fluorobenzyl)oxy]phenyl}amino)-4,5-dihydro-2H-pyrimido[5′,4′:4,5]thieno[2,3-e]indazol-2-yl]ethyl}piperazine-1-carboxylate] | ≤ 50 | ≤ 50
4 | CN(C)CCn1cc2c(n1)CCc1c-2sc2ncnc(Nc3ccc(OCc4cccc(F)c4)c(Cl)c3)c12 [Example 73, N-{3-chloro-4-[(3-fluorobenzyl)oxy]phenyl}-2-[2-(dimethylamino)ethyl]-4,5-dihydro-2H-pyrimido[5′,4′:4,5]thieno[2,3-e]indazol-6-amine] | ≤ 5 | ≤ 1
5 | Fc1cccc(COc2ccc(Nc3ncnc4sc5c(c34)CCc3n[nH]cc3-5)cc2Cl)c1 [Example 74, N-{3-chloro-4-[(3-fluorobenzyl)oxy]phenyl}-4,5-dihydro-2H-pyrimido[5′,4′:4,5]thieno[2,3-e]indazol-6-amine] | ≤ 5 | ≤ 1
6 | OC[C@@H](O)Cn1cc2c(n1)CCc1c-2sc2ncnc(Nc3ccc(OCc4cccc(F)c4)c(Cl)c3)c12 [Example 75, (S)-3-{6-[3-Chloro-4-(3-fluoro-benzyloxy)-phenylamino]-4,5-dihydro-10-thia-2,3,7,9-tetraaza-cyclopenta[a]fluoren-2-yl}-propane-1,2-diol] | ≤ 5 | ≤ 1
7 | OC[C@H](O)Cn1cc2c(n1)CCc1c-2sc2ncnc(Nc3ccc(OCc4cccc(F)c4)c(Cl)c3)c12 [Example 76, (R)-3-{6-[3-Chloro-4-(3-fluoro-benzyloxy)-phenylamino]-4,5-dihydro-10-thia-2,3,7,9-tetraaza-cyclopenta[a]fluoren-2-yl}-propane-1,2-diol] | ≤ 5 | ≤ 1
8 | Fc1cccc(COc2ccc(Nc3ncnc4sc5c(c34)CCc3nn(CCn4ccnc4)cc3-5)cc2Cl)c1 [Example 77, N-{3-chloro-4-[(3-fluorobenzyl)oxy]phenyl}-2-[2-(1H-imidazol-1-yl)ethyl]-4,5-dihydro-2H-pyrimido[5′,4′:4,5]thieno[2,3-e]indazol-6-amine] | ≤ 5 | ≤ 1
9 | CS(=O)(=O)CCNCCn1cc2c(n1)CCc1c-2sc2ncnc(Nc3ccc(OCc4cccc(F)c4)c(Cl)c3)c12 [Example 78, N-{3-chloro-4-[(3-fluorobenzyl)oxy]phenyl}-2-(2-{[2-(methylsulfonyl)ethyl]amino}ethyl)-4,5-dihydro-2H-pyrimido[5′,4′:4,5]thieno[2,3-e]indazol-6-amine] | ≤ 5 | ≤ 1
10 | Fc1cccc(COc2ccc(Nc3ncnc4sc5c(c34)CCc3nn(CCCl)cc3-5)cc2Cl)c1 [Example 79, 2-(2-chloroethyl)-N-{3-chloro-4-[(3-fluorobenzyl)oxy]phenyl}-4,5-dihydro-2H-pyrimido[5′,4′:4,5]thieno[2,3-e]indazol-6-amine] | ≤ 50 | ≤ 1
11 | OCCn1ncc2c1CCc1c-2sc2ncnc(Nc3ccc(OCc4cccc(F)c4)c(Cl)c3)c12 [Example 80, 2-[6-({3-chloro-4-[(3-fluorobenzyl)oxy]phenyl}amino)-4,5-dihydro-3H-pyrimido[5′,4′:4,5]thieno[2,3-e]indazol-3-yl]ethanol] | ≤ 5 | ≤ 1
12 | CN1CCN(CCn2ncc3c2CCc2c-3sc3ncnc(Nc4ccc(OCc5cccc(F)c5)c(Cl)c4)c23)CC1 [Example 82, N-{3-chloro-4-[(3-fluorobenzyl)oxy]phenyl}-3-[2-(4-methylpiperazin-1-yl)ethyl]-4,5-dihydro-3H-pyrimido[5′,4′:4,5]thieno[2,3-e]indazol-6-amine] | ≤ 5 | ≤ 1
13 | Fc1cccc(COc2ccc(Nc3ncnc4sc5c(c34)CCc3c-5cnn3CCn3ccnc3)cc2Cl)c1 [Example 83, N-{3-chloro-4-[(3-fluorobenzyl)oxy]phenyl}-3-[2-(1H-imidazol-1-yl)ethyl]-4,5-dihydro-3H-pyrimido[5′,4′:4,5]thieno[2,3-e]indazol-6-amine] | ≤ 5 | ≤ 1
14 | COCCNCCn1ncc2c1CCc1c-2sc2ncnc(Nc3ccc(OCc4cccc(F)c4)c(Cl)c3)c12 [Example 84, N-{3-chloro-4-[(3-fluorobenzyl)oxy]phenyl}-3-{2-[(2-methoxyethyl)amino]ethyl}-4,5-dihydro-3H-pyrimido[5′,4′:4,5]thieno[2,3-e]indazol-6-amine] | ≤ 5 | ≤ 1

Results, then the compound that gave them:

Row | IC50 [1] [µM] | IC50 [2] [µM] | SMILES
15 | ≤ 5 | ≤ 1 | COCCNCCn1cc2c(n1)CCc1c-2sc2ncnc(Nc3ccc(OCc4cccc(F)c4)c(Cl)c3)c12 [Example 59, N-{3-chloro-4-[(3-fluorobenzyl)oxy]phenyl}-2-{2-[(2-methoxyethyl)amino]ethyl}-4,5-dihydro-2H-pyrimido[5′,4′:4,5]thieno[2,3-e]indazol-6-amine]
16 | ≤ 5 | ≤ 1 | CN(C)[C@@H]1CCN(CCn2cc3c(n2)CCc2c-3sc3ncnc(Nc4ccc(OCc5cccc(F)c5)c(Cl)c4)c23)C1 [Example 60, N-{3-chloro-4-[(3-fluorobenzyl)oxy]phenyl}-2-{2-[(3R)-3-(dimethylamino)pyrrolidin-1-yl]ethyl}-4,5-dihydro-2H-pyrimido[5′,4′:4,5]thieno[2,3-e]indazol-6-amine]
17 | ≤ 5 | ≤ 1 | OCCNCCn1cc2c(n1)CCc1c-2sc2ncnc(Nc3ccc(OCc4cccc(F)c4)c(Cl)c3)c12 [Example 61, 2-({2-[6-({3-chloro-4-[(3-fluorobenzyl)oxy]phenyl}amino)-4,5-dihydro-2H-pyrimido[5′,4′:4,5]thieno[2,3-e]indazol-2-yl]ethyl}amino)ethanol]
18 | ≤ 5 | ≤ 1 | CN1CCN(CCn2cc3c(n2)CCc2c-3sc3ncnc(Nc4ccc(OCc5cccc(F)c5)c(Cl)c4)c23)CC1 [Example 62, N-{3-chloro-4-[(3-fluorobenzyl)oxy]phenyl}-2-[2-(4-methylpiperazin-1-yl)ethyl]-4,5-dihydro-2H-pyrimido[5′,4′:4,5]thieno[2,3-e]indazol-6-amine]
19 | ≤ 5 | ≤ 1 | Fc1cccc(COc2ccc(Nc3ncnc4sc5c(c34)CCc3nn(CCN4CCOCC4)cc3-5)cc2Cl)c1 [Example 63, N-{3-chloro-4-[(3-fluorobenzyl)oxy]phenyl}-2-(2-morpholin-4-ylethyl)-4,5-dihydro-2H-pyrimido[5′,4′:4,5]thieno[2,3-e]indazol-6-amine]
20 | ≤ 5 | ≤ 1 | OCCN(CCO)CCn1cc2c(n1)CCc1c-2sc2ncnc(Nc3ccc(OCc4cccc(F)c4)c(Cl)c3)c12 [Example 64, 2,2′-({2-[6-({3-chloro-4-[(3-fluorobenzyl)oxy]phenyl}amino)-4,5-dihydro-2H-pyrimido[5′,4′:4,5]thieno[2,3-e]indazol-2-yl]ethyl}imino)diethanol]
21 | ≤ 5 | ≤ 1 | Fc1cccc(COc2ccc(Nc3ncnc4sc5c(c34)CCc3nn(CCN4CCCC4)cc3-5)cc2Cl)c1 [Example 65, N-{3-chloro-4-[(3-fluorobenzyl)oxy]phenyl}-2-(2-pyrrolidin-1-ylethyl)-4,5-dihydro-2H-pyrimido[5′,4′:4,5]thieno[2,3-e]indazol-6-amine]
22 | ≤ 5 | ≤ 1 | CN(C)C1CCN(CCn2cc3c(n2)CCc2c-3sc3ncnc(Nc4ccc(OCc5cccc(F)c5)c(Cl)c4)c23)C1 (centres unmarked) [Example 66, N-{3-chloro-4-[(3-fluorobenzyl)oxy]phenyl}-2-{2-[3-(dimethylamino)pyrrolidin-1-yl]ethyl}-4,5-dihydro-2H-pyrimido[5′,4′:4,5]thieno[2,3-e]indazol-6-amine]
23 | ≤ 5 | ≤ 1 | CN(C)CCNCCn1cc2c(n1)CCc1c-2sc2ncnc(Nc3ccc(OCc4cccc(F)c4)c(Cl)c3)c12 [Example 67, N′-{2-[6-({3-chloro-4-[(3-fluorobenzyl)oxy]phenyl}amino)-4,5-dihydro-2H-pyrimido[5′,4′:4,5]thieno[2,3-e]indazol-2-yl]ethyl}-N,N-dimethylethane-1,2-diamine]
24 | ≤ 5 | ≤ 1 | Fc1cccc(COc2ccc(Nc3ncnc4sc5c(c34)CCc3nn(CCNCCN4CCOCC4)cc3-5)cc2Cl)c1 [Example 68, N-{3-chloro-4-[(3-fluorobenzyl)oxy]phenyl}-2-{2-[(2-morpholin-4-ylethyl)amino]ethyl}-4,5-dihydro-2H-pyrimido[5′,4′:4,5]thieno[2,3-e]indazol-6-amine]
25 | ≤ 5 | ≤ 1 | COCCN(C)CCn1cc2c(n1)CCc1c-2sc2ncnc(Nc3ccc(OCc4cccc(F)c4)c(Cl)c3)c12 [Example 69, N-{3-chloro-4-[(3-fluorobenzyl)oxy]phenyl}-2-{2-[(2-methoxyethyl)(methyl)amino]ethyl}-4,5-dihydro-2H-pyrimido[5′,4′:4,5]thieno[2,3-e]indazol-6-amine]
